The nature of the data set: Phase II AMX3500 (CENTAUR) sparse sampling: steady-state plasma concentrations of TURSO/TUDCA, UDCA, GUDCA in ALS patients. The format is in vivo, human. The note with it: patients; comparison across studies. The protocol: • 1. […] Treatment is administered as one sachet daily for the initial 3 weeks and then increased if tolerated to one sachet twice daily. […] Sampling times are randomly assigned to occur at either 1 or 4 hours post-dose at the 12 week visit and the other time at the 24 week visit. • Treatment duration: 24 weeks • 2.
• Protocol AMX3500: sparse sampling in 87 subjects with ALS. Approximately 2 samples are collected for each subject, 1 or 4 hours post dose following 12 and 24 weeks of treatment. • Protocol A35-002: rich sampling in 14 healthy adults. Approximately 21 samples are collected over 24 hours for each subject on two occasions, once following a high fat meal and the other under fasting conditions.
Subjects were advised to take the drug before a meal. […] Referred to as protocol 3500.
A study was carried out to examine plasma concentration data in various subgroups for the protocol AMX3500 Phase 2 study. This example summarizes plasma concentrations of TUDCA and 2 metabolites, also related acids, UDCA, the de-conjugated TUDCA metabolite, and GUDCA, the glycine conjugate of UDCA.
For each of the 2 treatment arms (treatment and placebo), subjects were further divided into 2 sample sequence groups for schedule of pharmacokinetic measurements: • 1. 1 hour post-dose for the Week 12 visit and 4 hours post-dose for the Week 24 visit • 2. 4 hours post-dose for the Week 12 visit and 1 hour post-dose for the Week 24 visit
Twenty-four distinct medication descriptions were identified as containing antibiotics. Dates of antibiotic use were compared to dates of visits and if the antibiotic use date range contained the visit date, then that visit was flagged for that subject's data for antibiotic use. […] These antibiotics could hypothetically be in a subject's body still if this event occurred. However, it was observed that only a small number of subjects took antibiotics near to visit dates but not overlapping visit dates. In other cases, subjects were taking antibiotics on the date of one visit but not the others. Some subjects are therefore in both categories of antibiotic use and nonuse, though no individual visits for a subject are counted in both categories at the same time.
Subjects whose race were recorded as “Black” or “African American” were evaluated according to the standard Glomerular Filtration Rate (eGFR) rating for that race. The other standard eGFR rating used, sometimes referred to as a standard for people who are White, was applied to subjects of all other races. These rates were analyzed as continuous in mL/min/1.73 m2 units and as the following categories: • 1. Less than 90 mL/min/1.73 m^2 • 2. Equal to or greater than 90 mL/min/1.73 m^2
Age was converted from a continuous variable to 2 categories: • 1. As old or older than 65 years old • 2. Younger than 65 years old
All boxplots boxes are bounded at the 25th and 75th percentile, with whiskers at 10th and 90th percentiles, outliers beyond that as points, the black line as median, and red line as mean.

Turning to `O=C(O)Cc1ccccc1` [PAA, phenylacetate], the “accumulation in plasma after once- or twice-daily dosing” value is on record as “no accumulation”.

(Values after patent US20230372263A1, “METHODS AND COMPOSITIONS FOR TREATING AMYOTROPHIC LATERAL SCLEROSIS” (Amylyx Pharmaceuticals, Inc., priority 2022, published 2023).)
